Source: patent US12077503B2, “Substituted cyclic amides and their use as herbicides” (FMC CORPORATION, priority 2015, dated 2024)

How the values were obtained:
Assay type in all cases: in vivo
[1] = test system: barnyardgrass (Echinochloa crus-galli); assay: Test A postemergence; conditions: Echinochloa crus-galli, post-emergence, 240 h
Summary of the method: (§1)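 Greenhouse, ~10 d after spray; visual injury vs untreated controls, 0 = no effect, 100 = complete control. Preemergence: directed soil spray over planted seeds. Postemergence: plants 2–10 cm, 1–2 leaf stage. Loam/sand blend. Compound in non-phytotoxic solvent with surfactant.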

[2] = test system: ragweed (common ragweed, Ambrosia elatior); assay: Test A postemergence; conditions: Ambrosia artemisiifolia, post-emergence, 240 h
Summary of the method: as §1

[3] = test system: Galium (catchweed bedstraw, Galium aparine); assay: Test A postemergence; conditions: Galium, post-emergence, 240 h
Summary of the method: as §1

[4] = test system: ryegrass, Italian (Italian ryegrass, Lolium multiflorum); assay: Test A postemergence; conditions: Lolium multiflorum, post-emergence, 240 h
Summary of the method: as §1

corn (Zea mays) = assay: Test A postemergence; conditions: Zea mays, post-emergence, 240 h
Summary of the method: as §1

[5] = test system: giant foxtail (Setaria faberii); assay: Test A postemergence; conditions: Setaria faberi, post-emergence, 240 h
Summary of the method: as §1

Kochia (Kochia scoparia) [6] = assay: Test A postemergence; conditions: Bassia scoparia, post-emergence, 240 h
Summary of the method: as §1

[7] = test system: blackgrass (Alopecurus myosuroides); assay: Test A postemergence; conditions: Alopecurus myosuroides, post-emergence, 240 h
Summary of the method: as §1

[8] = test system: pigweed (Amaranthus retroflexus); assay: Test A postemergence; conditions: Amaranthus retroflexus, post-emergence, 240 h
Summary of the method: as §1

[9] = test system: wheat (Triticum aestivum); assay: Test A postemergence; conditions: Triticum aestivum, post-emergence, 240 h
Summary of the method: as §1

[10] = test system: barnyardgrass (Echinochloa crus-galli); assay: Test A preemergence; conditions: Echinochloa crus-galli, pre-emergence, 240 h, 0 to 100 scale where 0 is no effect and 100 is complete control, read-out: Barnyardgrass plant response rating
Summary of the method: as §1

[11] = test system: ragweed (common ragweed, Ambrosia elatior); assay: Test A preemergence; conditions: Ambrosia artemisiifolia, pre-emergence, 240 h, 0 to 100 scale where 0 is no effect and 100 is complete control, read-out: Ragweed plant response rating
Summary of the method: as §1

[12] = test system: ryegrass, Italian (Italian ryegrass, Lolium multiflorum); assay: Test A preemergence; conditions: Lolium multiflorum, pre-emergence, 240 h, 0 to 100 scale where 0 is no effect and 100 is complete control, read-out: Ryegrass, Italian plant response rating
Summary of the method: as §1

[13] = test system: giant foxtail (Setaria faberii); assay: Test A preemergence; conditions: Setaria faberi, pre-emergence, 240 h, 0 to 100 scale where 0 is no effect and 100 is complete control, read-out: Foxtail, Giant plant response rating
Summary of the method: as §1

Kochia (Kochia scoparia) [14] = assay: Test A preemergence; conditions: Bassia scoparia, pre-emergence, 240 h, 0 to 100 scale where 0 is no effect and 100 is complete control, read-out: Kochia plant response rating
Summary of the method: as §1

[15] = test system: pigweed (Amaranthus retroflexus); assay: Test A preemergence; conditions: Amaranthus retroflexus, pre-emergence, 240 h, 0 to 100 scale where 0 is no effect and 100 is complete control, read-out: Pigweed plant response rating
[16] = test system: barnyardgrass (Echinochloa crus-galli); assay: Test B flooded paddy test; conditions: Echinochloa crus-galli, 250 g ai/ha, Flood; 0 to 100 scale where 0 is no effect and 100 is complete control; read-out: Barnyardgrass plant response rating
Summary of the method: (§2)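 Evaluation by eye, against controls, occurred 13–15 d post-treatment in a greenhouse, using a 0 (no effect) to 100 (complete control) scale. Application was into the paddy water, 3 cm deep over the soil, on 2-leaf plants.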

[17] = test system: ducksalad (Heteranthera limosa); assay: Test B flooded paddy test; conditions: Heteranthera limosa, 250 g ai/ha, Flood; 0 to 100 scale where 0 is no effect and 100 is complete control; read-out: Ducksalad plant response rating
Summary of the method: as §2

[18] = test system: sedge, umbrella (small-flower umbrella sedge, Cyperus difformis); assay: Test B flooded paddy test; conditions: Cyperus difformis, 250 g ai/ha, Flood; 0 to 100 scale where 0 is no effect and 100 is complete control; read-out: Sedge, Umbrella plant response rating
Summary of the method: as §2

rice (Oryra sativa) = assay: Test B flooded paddy test; conditions: Oryza sativa, 250 g ai/ha, Flood; 0 to 100 scale where 0 is no effect and 100 is complete control; read-out: Rice plant response rating
Summary of the method: as §2

[19] = 125 g ai/ha, preemergence, approx. 10 d

**Q.** Which results are given for `CN1C[C@H](c2ccc(C(F)(F)F)cn2)[C@@H](C(=O)Nc2ccc(F)c(F)c2F)C1=O` [Compound 1106]?
**A.** pest or weed control at 125 g/ha ([1]; 125 g ai/ha, postemergence, visual injury on 0 to 100 scale (0 no effect, 100 complete control), approx. 10 d, read-out: Barnyardgrass plant response rating): 80%; pest or weed control at 31 g/ha ([1]; Postemergence, 31 g ai/ha, visual injury after approx. 10 d, 0 to 100 scale, 0 no effect, 100 complete control, read-out: Plant response rating, Barnyardgrass): 30%; pest or weed control at 125 g/ha ([2]; 125 g ai/ha, postemergence, visual injury on 0 to 100 scale (0 no effect, 100 complete control), approx. 10 d, read-out: Ragweed plant response rating): 0%; pest or weed control at 31 g/ha ([2]; Postemergence, 31 g ai/ha, visual injury after approx. 10 d, 0 to 100 scale, 0 no effect, 100 complete control, read-out: Plant response rating, Ragweed): 0%; pest or weed control at 125 g/ha ([3]; 125 g ai/ha, postemergence, visual injury on 0 to 100 scale (0 no effect, 100 complete control), approx. 10 d, read-out: Galium plant response rating): 60%; pest or weed control at 31 g/ha ([3]; Postemergence, 31 g ai/ha, visual injury after approx. 10 d, 0 to 100 scale, 0 no effect, 100 complete control, read-out: Plant response rating, Galium): 40%; pest or weed control at 125 g/ha ([4]; 125 g ai/ha, postemergence, visual injury on 0 to 100 scale (0 no effect, 100 complete control), approx. 10 d, read-out: Ryegrass, Italian plant response rating): 0%; pest or weed control at 31 g/ha ([4]; Postemergence, 31 g ai/ha, visual injury after approx. 10 d, 0 to 100 scale, 0 no effect, 100 complete control, read-out: Plant response rating, Ryegrass, Italian): 0%; plant injury at 125 g/ha (corn (Zea mays); 125 g ai/ha, postemergence, visual injury on 0 to 100 scale (0 no effect, 100 complete control), approx. 10 d, read-out: Corn plant response rating): 0%; Corn plant response rating (crop injury, 0 = no effect, 100 = complete kill) at 31 g/ha (corn (Zea mays); Postemergence, 31 g ai/ha, visual injury after approx. 10 d, 0 to 100 scale, 0 no effect, 100 complete control): 0%; pest or weed control at 125 g/ha ([5]; 125 g ai/ha, postemergence, visual injury on 0 to 100 scale (0 no effect, 100 complete control), approx. 10 d, read-out: Foxtail, Giant plant response rating): 60%; pest or weed control at 31 g/ha ([5]; Postemergence, 31 g ai/ha, visual injury after approx. 10 d, 0 to 100 scale, 0 no effect, 100 complete control, read-out: Plant response rating, Foxtail, Giant): 0%; pest or weed control at 125 g/ha (Kochia (Kochia scoparia) [6]; 125 g ai/ha, postemergence, visual injury on 0 to 100 scale (0 no effect, 100 complete control), approx. 10 d, read-out: Kochia plant response rating): 60%; pest or weed control at 31 g/ha (Kochia (Kochia scoparia) [6]; Postemergence, 31 g ai/ha, visual injury after approx. 10 d, 0 to 100 scale, 0 no effect, 100 complete control, read-out: Plant response rating, Kochia): 0%; pest or weed control at 125 g/ha ([7]; 125 g ai/ha, postemergence, visual injury on 0 to 100 scale (0 no effect, 100 complete control), approx. 10 d, read-out: Blackgrass plant response rating): 0%; pest or weed control at 31 g/ha ([7]; Postemergence, 31 g ai/ha, visual injury after approx. 10 d, 0 to 100 scale, 0 no effect, 100 complete control, read-out: Plant response rating, Blackgrass): 0%; pest or weed control at 125 g/ha ([8]; 125 g ai/ha, postemergence, visual injury on 0 to 100 scale (0 no effect, 100 complete control), approx. 10 d, read-out: Pigweed plant response rating): 20%; pest or weed control at 31 g/ha ([8]; Postemergence, 31 g ai/ha, visual injury after approx. 10 d, 0 to 100 scale, 0 no effect, 100 complete control, read-out: Plant response rating, Pigweed): 10%; plant injury at 125 g/ha ([9]; 125 g ai/ha, postemergence, visual injury on 0 to 100 scale (0 no effect, 100 complete control), approx. 10 d, read-out: Wheat plant response rating): 0%; plant injury at 31 g/ha ([9]; Postemergence, 31 g ai/ha, visual injury after approx. 10 d, 0 to 100 scale, 0 no effect, 100 complete control, read-out: Plant response rating, Wheat): 0%; pest or weed control at 31 g/ha ([10]; 31 g ai/ha, Preemergence): 50%; pest or weed control at 125 g/ha [10, 19]: 90%; pest or weed control at 31 g/ha ([11]; 31 g ai/ha, Preemergence): 0%; pest or weed control at 125 g/ha [11, 19]: 30%; pest or weed control at 31 g/ha ([12]; 31 g ai/ha, Preemergence): 0%; pest or weed control at 125 g/ha [12, 19]: 0%; pest or weed control at 31 g/ha ([13]; 31 g ai/ha, Preemergence): 60%; pest or weed control at 125 g/ha [13, 19]: 90%; pest or weed control at 31 g/ha (Kochia (Kochia scoparia) [14]; 31 g ai/ha, Preemergence): 0%; pest or weed control at 125 g/ha (Kochia (Kochia scoparia) [14]; [19]): 60%; pest or weed control at 31 g/ha ([15]; 31 g ai/ha, Preemergence): 0%; pest or weed control at 125 g/ha [15, 19]: 20%; pest or weed control at 250 g/ha [16]: 70%; pest or weed control at 250 g/ha [17]: 100%; pest or weed control at 250 g/ha [18]: 0%; pest or weed control at 250 g/ha (rice (Oryra sativa)): 40%
